Test results reported in patent publication US9695155B2, “Herbicidal substituted pyrimidinyloxy benzene compounds” (E. I. DU PONT DE NEMOURS AND COMPANY, priority 2013, dated 2017).

Experiments:
barnyardgrass = assay: Test A preemergence; assay type: in vivo, Echinochloa crus-galli; details: for Barnyardgrass plant response rating (0 to 100 scale, 0 is no effect, 100 is complete control): 125 g ai/ha; for Barnyardgrass plant response rating: 500 g ai/ha, 0 to 100 scale where 0 is no effect and 100 is complete control
Method in brief: (§1)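 Visual injury scored 0–100 (100 = complete control) against untreated controls about 10 days after treatment in a greenhouse. Test chemicals, formulated with surfactant in non-phytotoxic solvent, were sprayed on soil preemergence or on 2-10 cm, one- to two-leaf plants postemergence.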

pigweed [1] = assay: Test A preemergence; assay type: in vivo, Amaranthus retroflexus; details: for Pigweed plant response rating (0 to 100 scale): 125 g ai/ha; for Pigweed plant response rating: 500 g ai/ha, 0 to 100 scale where 0 is no effect and 100 is complete control
Method in brief: as §1

velvetleaf = assay: Test A preemergence; assay type: in vivo, Abutilon theophrasti; details: for Velvetleaf plant response rating (0 to 100 scale): 125 g ai/ha; for Velvetleaf plant response rating: 500 g ai/ha, 0 to 100 scale where 0 is no effect and 100 is complete control
Method in brief: as §1

large (Lg) crabgrass [2] = assay: Test A postemergence; assay type: in vivo, Digitaria sanguinalis; details: 0 to 100 scale where 0 is no effect and 100 is complete control; for Crabgrass, Large plant response rating: 125 g ai/ha; for Plant response rating, Crabgrass, Large: 500 g ai/ha
Method in brief: as §1

giant foxtail [3] = assay: Test A postemergence; assay type: in vivo, Setaria faberii; details: 0 to 100 scale where 0 is no effect and 100 is complete control; for Foxtail, Giant plant response rating: 125 g ai/ha; for Plant response rating, Foxtail, Giant: 500 g ai/ha
Method in brief: as §1

morningglory = assay: Test A postemergence; assay type: in vivo, Ipomoea spp.; details: 0 to 100 scale where 0 is no effect and 100 is complete control; for Morningglory plant response rating: 125 g ai/ha; for Plant response rating, Morningglory: 500 g ai/ha
Method in brief: as §1

pigweed [4] = assay: Test A postemergence; assay type: in vivo, Amaranthus retroflexus; details: 0 to 100 scale where 0 is no effect and 100 is complete control; for Pigweed plant response rating: 125 g ai/ha; for Plant response rating, Pigweed: 500 g ai/ha
Method in brief: as §1

corn [5] = assay: Test A postemergence; assay type: in vivo, Zea mays; details: 0 to 100 scale where 0 is no effect and 100 is complete control; for Corn plant response rating: 125 g ai/ha; for Plant response rating, Corn: 500 g ai/ha
Method in brief: as §1

large (Lg) crabgrass [6] = assay: Test C preemergence; assay type: in vivo, Digitaria sanguinalis; details: for Crabgrass, Large plant response rating: preemergence; for Plant response rating, Crabgrass, Large: Preemergence, 62 g ai/ha, scale 0 to 100, 0 no effect, 100 complete control
Method in brief: (§2)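 Seeds are planted in blended loam soil and sand and treated preemergence, while seedlings in a peat moss/vermiculite medium receive postemergence sprays at 2 to 18 cm height. All plants stay in the greenhouse for 13 to 15 days before visual comparison with controls on a 0–100 scale.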

johnsongrass [7] = assay: Test C preemergence; assay type: in vivo, Sorghum halepense; details: for Johnsongrass plant response rating: preemergence; for Plant response rating, Johnsongrass: Preemergence, 62 g ai/ha, scale 0 to 100, 0 no effect, 100 complete control
Method in brief: as §2

lambsquarters = assay: Test C preemergence; assay type: in vivo, Chenopodium album; details: for Lambsquarters plant response rating: preemergence; for Plant response rating, Lambsquarters: Preemergence, 62 g ai/ha, scale 0 to 100, 0 no effect, 100 complete control
Method in brief: as §2

ragweed = assay: Test C preemergence; assay type: in vivo, Ambrosia elatior; details: for Ragweed plant response rating: preemergence; for Plant response rating, Ragweed: Preemergence, 62 g ai/ha, scale 0 to 100, 0 no effect, 100 complete control
Method in brief: as §2

galium = assay: Test C postemergence; assay type: in vivo, Galium aparine; details: for Galium plant response rating: 31 g ai/ha; for Galium plant response rating / Plant response rating, Galium: scale 0 to 100 (0 no effect, 100 complete control)
Method in brief: as §2

corn [8] = assay: Test C postemergence; assay type: in vivo, Zea mays; details: for Corn plant response rating: 31 g ai/ha; for Corn plant response rating / Plant response rating, Corn: scale 0 to 100 (0 no effect, 100 complete control)
Method in brief: as §2

giant foxtail [9] = assay: Test C postemergence; assay type: in vivo, Setaria faberii; details: for Foxtail, Giant plant response rating: 31 g ai/ha; for Foxtail, Giant plant response rating / Plant response rating, Foxtail, Giant: scale 0 to 100 (0 no effect, 100 complete control)
Method in brief: as §2

johnsongrass [10] = assay: Test C postemergence; assay type: in vivo, Sorghum halepense; details: for Johnsongrass plant response rating: 31 g ai/ha; for Johnsongrass plant response rating / Plant response rating, Johnsongrass: scale 0 to 100 (0 no effect, 100 complete control)
Method in brief: as §2

kochia = assay: Test C postemergence; assay type: in vivo, Kochia scoparia; details: for Kochia plant response rating: 31 g ai/ha; for Kochia plant response rating / Plant response rating, Kochia: scale 0 to 100 (0 no effect, 100 complete control)
Method in brief: as §2

chickweed = assay: Test C postemergence; assay type: in vivo, Stellaria media; details: for Chickweed plant response rating: 31 g ai/ha; for Chickweed plant response rating / Plant response rating, Chickweed: scale 0 to 100 (0 no effect, 100 complete control)
Method in brief: as §2

[11] = 125 g ai/ha, scale 0 (no effect) to 100 (complete control)
[12] = 250 g ai/ha, scale 0 (no effect) to 100 (complete control)
[13] = postemergence, visual rating, 13 to 15 days
[14] = 125 g ai/ha, postemergence, visual rating
[15] = Postemergence, 62 g ai/ha, 13 to 15 days
[16] = 16 g ai/ha, scale 0 to 100 (0 no effect, 100 complete control)
[17] = 16 g ai/ha, postemergence, 0 is no effect, 100 is complete control

N#Cc1cccc(Oc2ncc(Cl)cn2)c1-n1cc(I)cn1 [Compound 204]
Barnyardgrass plant response rating (0 to 100 scale, 0 is no effect, 100 is complete control) (barnyardgrass): 70 | Barnyardgrass plant response rating (barnyardgrass): 100 | Pigweed plant response rating (0 to 100 scale) (pigweed [1]): 100 | Pigweed plant response rating (pigweed [1]): 100 | Velvetleaf plant response rating (0 to 100 scale) (velvetleaf): 80 | Velvetleaf plant response rating (velvetleaf): 100 | Crabgrass, Large plant response rating (large (Lg) crabgrass [2]): 90 | Plant response rating, Crabgrass, Large (large (Lg) crabgrass [2]): 100 | Foxtail, Giant plant response rating (giant foxtail [3]): 80 | Plant response rating, Foxtail, Giant (giant foxtail [3]): 100 | Morningglory plant response rating (morningglory): 80 | Plant response rating, Morningglory (morningglory): 100 | Pigweed plant response rating (pigweed [4]): 100 | Plant response rating, Pigweed (pigweed [4]): 100 | Corn plant response rating (corn [5]): 50 | Plant response rating, Corn (corn [5]): 60 | Crabgrass, Large plant response rating (large (Lg) crabgrass [6]; [11]): 100 | Crabgrass, Large plant response rating (large (Lg) crabgrass [6]; [12]): 100 | Plant response rating, Crabgrass, Large (large (Lg) crabgrass [6]): 100 | Johnsongrass plant response rating (johnsongrass [7]; [11]): 95 | Johnsongrass plant response rating (johnsongrass [7]; [12]): 98 | Plant response rating, Johnsongrass (johnsongrass [7]): 80 | Lambsquarters plant response rating (lambsquarters; [11]): 95 | Lambsquarters plant response rating (lambsquarters; [12]): 98 | Plant response rating, Lambsquarters (lambsquarters): 98 | Ragweed plant response rating (ragweed; [11]): 5 | Ragweed plant response rating (ragweed; [12]): 85 | Plant response rating, Ragweed (ragweed): 5 | Galium plant response rating (galium; [13]): 70 | Plant response rating, Galium (galium; [14]): 75 | Plant response rating (0 to 100), Galium (galium; 250 g ai/ha, postemergence): 100 | Plant response rating, Galium (galium; [15]): 75 | Corn plant response rating (corn [8]; [13]): 10 | Plant response rating, Corn (corn [8]; [14]): 20 | Plant response rating (0 to 100), Corn (corn [8]; 250 g ai/ha, postemergence): 20 | Plant response rating, Corn (corn [8]; [15]): 20 | Foxtail, Giant plant response rating (giant foxtail [9]; [13]): 5 | Plant response rating, Foxtail, Giant (giant foxtail [9]; [14]): 10 | Plant response rating (0 to 100), Foxtail, Giant (giant foxtail [9]; 250 g ai/ha, postemergence): 90 | Plant response rating, Foxtail, Giant (giant foxtail [9]; [15]): 5 | Johnsongrass plant response rating (johnsongrass [10]; [13]): 5 | Plant response rating, Johnsongrass (johnsongrass [10]; [14]): 10 | Plant response rating (0 to 100), Johnsongrass (johnsongrass [10]; 250 g ai/ha, postemergence): 30 | Plant response rating, Johnsongrass (johnsongrass [10]; [15]): 5 | Kochia plant response rating (kochia; [13]): 90 | Plant response rating, Kochia (kochia; [14]): 100 | Plant response rating (0 to 100), Kochia (kochia; 250 g ai/ha, postemergence): 100 | Plant response rating, Kochia (kochia; [15]): 100 | Chickweed plant response rating (chickweed; [13]): 75 | Plant response rating, Chickweed (chickweed; [14]): 98 | Plant response rating (0 to 100), Chickweed (chickweed; 250 g ai/ha, postemergence): 100 | Plant response rating, Chickweed (chickweed; [15]): 95

N#Cc1cnn(-c2c(Oc3ncc(Cl)cn3)cccc2C(F)F)c1 [Compound 236]
Barnyardgrass plant response rating (0 to 100 scale, 0 is no effect, 100 is complete control) (barnyardgrass): 100 | Barnyardgrass plant response rating (barnyardgrass): 100 | Pigweed plant response rating (0 to 100 scale) (pigweed [1]): 100 | Pigweed plant response rating (pigweed [1]): 100 | Velvetleaf plant response rating (0 to 100 scale) (velvetleaf): 100 | Velvetleaf plant response rating (velvetleaf): 100 | Crabgrass, Large plant response rating (large (Lg) crabgrass [2]): 80 | Plant response rating, Crabgrass, Large (large (Lg) crabgrass [2]): 100 | Foxtail, Giant plant response rating (giant foxtail [3]): 90 | Plant response rating, Foxtail, Giant (giant foxtail [3]): 100 | Morningglory plant response rating (morningglory): 80 | Plant response rating, Morningglory (morningglory): 100 | Pigweed plant response rating (pigweed [4]): 100 | Plant response rating, Pigweed (pigweed [4]): 100 | Corn plant response rating (corn [5]): 70 | Plant response rating, Corn (corn [5]): 100 | Crabgrass, Large plant response rating (large (Lg) crabgrass [6]; [16]): 90 | Crabgrass, Large plant response rating (large (Lg) crabgrass [6]; [11]): 100 | Plant response rating, Crabgrass, Large (large (Lg) crabgrass [6]): 100 | Johnsongrass plant response rating (johnsongrass [7]; [16]): 5 | Johnsongrass plant response rating (johnsongrass [7]; [11]): 85 | Plant response rating, Johnsongrass (johnsongrass [7]): 60 | Lambsquarters plant response rating (lambsquarters; [16]): 98 | Lambsquarters plant response rating (lambsquarters; [11]): 100 | Plant response rating, Lambsquarters (lambsquarters): 100 | Ragweed plant response rating (ragweed; [16]): 15 | Ragweed plant response rating (ragweed; [11]): 90 | Plant response rating, Ragweed (ragweed): 85 | Plant response rating (0 to 100), Galium (galium; [17]): 60 | Galium plant response rating (galium; [13]): 75 | Plant response rating, Galium (galium; [14]): 85 | Plant response rating, Galium (galium; [15]): 80 | Plant response rating (0 to 100), Corn (corn [8]; [17]): 5 | Corn plant response rating (corn [8]; [13]): 5 | Plant response rating, Corn (corn [8]; [14]): 10 | Plant response rating, Corn (corn [8]; [15]): 5 | Plant response rating (0 to 100), Foxtail, Giant (giant foxtail [9]; [17]): 5 | Foxtail, Giant plant response rating (giant foxtail [9]; [13]): 50 | Plant response rating, Foxtail, Giant (giant foxtail [9]; [14]): 15 | Plant response rating, Foxtail, Giant (giant foxtail [9]; [15]): 15 | Plant response rating (0 to 100), Johnsongrass (johnsongrass [10]; [17]): 10 | Johnsongrass plant response rating (johnsongrass [10]; [13]): 25 | Plant response rating, Johnsongrass (johnsongrass [10]; [14]): 20 | Plant response rating, Johnsongrass (johnsongrass [10]; [15]): 15 | Plant response rating (0 to 100), Kochia (kochia; [17]): 30 | Kochia plant response rating (kochia; [13]): 80 | Plant response rating, Kochia (kochia; [14]): 90 | Plant response rating, Kochia (kochia; [15]): 85 | Plant response rating (0 to 100), Chickweed (chickweed; [17]): 40 | Chickweed plant response rating (chickweed; [13]): 50 | Plant response rating, Chickweed (chickweed; [14]): 50 | Plant response rating, Chickweed (chickweed; [15]): 65
